Among the data in US9512120B2, “Microbicidally active imidazopyridine derivatives” (Syngenta Participations AG, priority 2013, dated 2016) are pest or weed control, inhibition and melting point values, retold here.

Data set [1] deals with Puccinia recondita f. sp. Tritici. The data set can be described thus: Puccinia recondita f. sp. tritici / wheat / leaf disc preventative (brown rust). The data set is classed as in vivo. The following applies: foliar, wheat leaf segments cv Kanzler, inoculated 1 day after application, assessed 7-9 days after application, read-out: control of Puccinia recondita f. sp. Tritici (percent disease control compared to untreated). The method, boiled down: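 Preventative test: percent disease control relative to untreated leaf segments was assessed 7-9 days post-application. Wheat (cv Kanzler) leaf discs were treated at 200 ppm and spore-inoculated 1 day afterwards. Discs were held at 19° C and 75% relative humidity under a 12/12 h light cycle.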

In data set [2] the test system is Phaeosphaeria nodorum (Septoria nodorum). The data set can be described thus: Phaeosphaeria nodorum (Septoria nodorum) / wheat / leaf disc preventative (glume blotch). The note with it: Parastagonospora nodorum, foliar, wheat leaf segments cv Kanzler, inoculated 2 days after application, assessed 5-7 days after application, read-out: control of Phaeosphaeria nodorum (percent disease control compared to untreated). The data set is classed as in vivo. The method, boiled down:
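Wheat leaf segments (cv Kanzler) on agar sprayed with compound at 200 ppm, inoculated with spores 2 days later. Incubated at 20° C., 75% relative humidity, 12/12 h light/dark; percent disease control versus untreated scored 5-7 days after application.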

In the next data set the test system is Pyrenophora teres. The data set is described as follows: Pyrenophora teres / barley / leaf disc preventative (net blotch). In kind it is in vivo. The note with it: foliar, barley leaf segments cv Hasso, inoculated two days after application, assessed 5-7 days after application, read-out: control of Pyrenophora teres (disease control compared to untreated). The method, boiled down:
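Preventative leaf-disc test: 200 ppm spray, then spore inoculation after two days on barley cv Hasso segments. Incubation 20 °C, 65% relative humidity, 12 h light/12 h dark; efficacy rated against untreated checks at 5-7 days post-application.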

Data set [3] deals with Botryotinia fuckeliana (Botrytis cinerea). The data set is described as follows: Botryotinia fuckeliana (Botrytis cinerea) / liquid culture (gray mould). In kind it is cell-based. The following applies: Vogels broth, 24° C., 3-4 days after application, read-out: control of Botryotinia fuckeliana (inhibition of growth, photometric). The procedure, abridged:
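Test compound was applied at 200 ppm in DMSO, then Vogels nutrient broth containing cryo-stored B. cinerea conidia was added. Photometric growth-inhibition reading followed after 3-4 days at 24 °C.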

The subject of data set [4] is Glomerella lagenarium (Colletotrichum lagenarium). The data set is described as follows: Glomerella lagenarium (Colletotrichum lagenarium) / liquid culture (anthracnose). The following applies: Colletotrichum orbiculare, PDB, 24° C., 3-4 days after application, read-out: control of Glomerella lagenarium (inhibition of growth, photometric). The data set is classed as cell-based. The procedure, abridged:
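Test compound, delivered in DMSO at an application rate of 200 ppm, was combined with spore-containing PDB. Photometric growth-inhibition measurement followed 3-4 days of incubation at 24° C.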

For data set [5], the system named is Mycosphaerella graminicola (Septoria tritici). The data set is described as follows: Mycosphaerella graminicola (Septoria tritici) / liquid culture (Septoria blotch). The data set is classed as cell-based. The following applies: Zymoseptoria tritici, PDB, 24° C., 4-5 days after application, read-out: control of Mycosphaerella graminicola (inhibition of growth, photometric). The method, boiled down:
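Growth inhibition was read photometrically after 4–5 days at 24 °C. The test compound was applied at 200 ppm from DMSO solution, then PDB broth seeded with conidia taken straight from cryogenic storage was added.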

A further data set relates to Gaeumannomyces graminis. The data set can be described thus: Gaeumannomyces graminis / liquid culture (take-all of cereals). The note with it: PDB, 24° C., 4-5 days after application, read-out: control of Gaeumannomyces graminis (inhibition of growth, photometric). The data set is classed as cell-based. The method, boiled down:
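Growth inhibition, measured by photometry 4-5 days post-application at 24 °C, of fungal mycelial fragments in PDB broth. Test compound applied as DMSO solution at 200 ppm.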

Data set [6] has as its system Thanatephorus cucumeris (Rhizoctonia solani). The data set is described as follows: Thanatephorus cucumeris (Rhizoctonia solani) / liquid culture (foot rot, damping-off). In kind it is cell-based. The note with it: PDB, 24° C., 3-4 days after application, read-out: control of Thanatephorus cucumeris (inhibition of growth, photometric). The method, boiled down: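 At 200 ppm, compounds in DMSO were combined with fresh liquid-culture mycelia in PDB and kept at 24° C; photometric measurement of growth inhibition after 3-4 days.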

For data set [7], the system named is Monographella nivalis (Microdochium nivale). The data set is described as follows: Monographella nivalis (Microdochium nivale) / liquid culture (foot rot cereals). The data set is classed as cell-based. The following applies: PDB, 24° C., 4-5 days after application, read-out: control of Monographella nivalis (inhibition of growth, photometric). The method, boiled down:
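Cryostored conidia in potato dextrose broth were added to test compound dispensed from DMSO at 200 ppm. Plates were kept at 24° C, and growth inhibition was read photometrically 4-5 days after application.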

The subject of the next data set is Pythium ultimum. The data set can be described thus: Pythium ultimum / liquid culture (seedling damping off). The data set is classed as cell-based. The following applies: Globisporangium ultimum, potato dextrose broth, 24° C., 2-3 days after application, read-out: control of Pythium ultimum (inhibition of growth, photometric). The procedure, abridged:
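Test compound in DMSO at 200 ppm was incubated with mycelia fragments and oospores in potato dextrose broth at 24 °C. Growth inhibition was read photometrically 2-3 days after application.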

A further data set relates to Fusarium culmorum. The data set can be described thus: microbe, parasite or virus in culture. The note with it: read-out: control of Fusarium culmorum (inhibition of growth, photometric). The data set is classed as cell-based.
For the next data set, the system named is Sclerotinia sclerotiorum. The data set is described as follows: Sclerotinia sclerotiorum liquid culture (cottony rot / white mold). The data set is classed as cell-based. The following applies: PDB, 24° C., 3-4 days after application, read-out: control of Sclerotinia sclerotiorum (inhibition of growth, photometric). The procedure, abridged: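 Mycelia fragments of Sclerotinia sclerotiorum in potato dextrose broth were added to compound in DMSO. Cultures incubated at 24° C; growth inhibition determined photometrically 3-4 days after application.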

The test system of data set [8] is Mycosphaerella arachidis (Cercospora arachidicola). The data set can be described thus: Mycosphaerella arachidis (Cercospora arachidicola) / liquid culture (early leaf spot). The data set is classed as cell-based. The following applies: PDB, 24° C., 4-5 days after application, read-out: control of Mycosphaerella arachidis (inhibition of growth, photometric). The method, boiled down:
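Conidia suspended in potato dextrose broth and added to test compound from DMSO solution at 200 ppm. Incubated at 24 °C; growth inhibition read photometrically 4-5 days after application.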

Another data set concerns Plasmopara viticola. The data set can be described thus: Plasmopara viticola / grape / leaf disc preventative. In kind it is in vivo. The following applies: foliar, grape vine leaf disks, inoculated 1 day after application, assessed 6-8 days after application, read-out: control of Plasmopara viticola (percent disease control compared to untreated).

Each structure is given as a SMILES string.

Usually inhibition stands for the drop in the measured response relative to a control, in per cent. As to `CCn1c(-n2ncnc2N)nc2cncc(-c3ccc(OC)cc3F)c21` [Compound 96, 2-[1-ethyl-7-(2-fluoro-4-methoxyphenyl)imidazo[4,5-c]pyridin-2-yl]-1,2,4-triazol-3-amine], the pest or weed control at 200 ppm (in data set [1]; in [2]; with Pyrenophora teres) was at least 80% throughout. For the same molecule, the inhibition at 20 ppm (in data set [3]; in data set [4]; in data set [5]; with Gaeumannomyces graminis; in data set [6]; in [7]) was at least 80% throughout. The inhibition at 20 ppm in the data set with Pythium ultimum, with Fusarium culmorum and in the data set on Sclerotinia sclerotiorum was at least 80% throughout.
Turning to `CCn1c(-n2ncnc2N)nc2cncc(-c3ccc(F)cc3Cl)c21` [Compound 101, 2-[7-(2-chloro-4-fluorophenyl)-1-ethylimidazo[4,5-c]pyridin-2-yl]-1,2,4-triazol-3-amine], the pest or weed control at 200 ppm (in [1]; in data set [2]; in the data set with Pyrenophora teres) was at least 80% each time. For the same molecule, the inhibition at 20 ppm (in data set [3]; in [4]; in [8]; in data set [5]; in the data set with Gaeumannomyces graminis; in data set [6]) was at least 80% throughout. Also, the inhibition at 20 ppm (in data set [7]; in the data set on Pythium ultimum; in the data set with Fusarium culmorum; with Sclerotinia sclerotiorum) was at least 80% each time.
By melting point is commonly meant the temperature of the solid-liquid transition. In the case of `C=Cc1cncc2nc(-n3ncnc3N)n(CC)c12` [Compound 106, 2-(7-ethenyl-1-ethylimidazo[4,5-c]pyridin-2-yl)-1,2,4-triazol-3-amine], the melting point lay within 178 to 186 °C. Further, the pest or weed control at 200 ppm with Pyrenophora teres was at least 80%. The inhibition at 20 ppm in data set [3] was at least 80%. Besides, in data set [8], the inhibition at 20 ppm was at least 80%. In [5], the inhibition at 20 ppm was at least 80%. The inhibition at 20 ppm in the data set with Gaeumannomyces graminis is at least 80%. The inhibition at 20 ppm in data set [6] was at least 80%. For the same molecule, the inhibition at 20 ppm in data set [7] is at least 80%. In addition, the inhibition at 20 ppm in the data set with Pythium ultimum is at least 80%. Besides, the inhibition at 20 ppm in the data set with Fusarium culmorum is at least 80%. Moreover, the inhibition at 20 ppm in the data set with Sclerotinia sclerotiorum is at least 80%.
`CCn1c(-n2ncnc2N)nc2cncc(C#CC3CC3)c21` [Compound 123, 2-[7-(2-cyclopropylethynyl)-1-ethylimidazo[4,5-c]pyridin-2-yl]-1,2,4-triazol-3-amine] yielded a melting point of 188 to 192 °C. In addition, the pest or weed control at 200 ppm in data set [1] is at least 80%. For the same molecule, the pest or weed control at 200 ppm in [2] is at least 80%. Further, the pest or weed control at 200 ppm in the data set on Pyrenophora teres was at least 80%. Besides, in data set [3], the inhibition at 20 ppm was at least 80%. Also, the inhibition at 20 ppm in [4] was at least 80%. Besides, in data set [8], the inhibition at 20 ppm was at least 80%. Besides, the inhibition at 20 ppm in data set [5] was at least 80%. Moreover, the inhibition at 20 ppm in the data set on Gaeumannomyces graminis was at least 80%. Moreover, the inhibition at 20 ppm in [6] was at least 80%. The inhibition at 20 ppm in data set [7] was at least 80%. Further, in the data set with Fusarium culmorum, the inhibition at 20 ppm is at least 80%. Besides, the inhibition at 20 ppm in the data set with Sclerotinia sclerotiorum was at least 80%.
As to `C/C=C/CO/N=C(/C)c1cncc2nc(-n3ncnc3N)n(CC)c12` [Compound 176], the pest or weed control at 200 ppm (with Plasmopara viticola; in data set [2]; with Pyrenophora teres) was at least 80% each time. Moreover, the inhibition at 20 ppm (in [3]; in [8]; in data set [5]; in the data set with Gaeumannomyces graminis; in [6]; in [7]) was at least 80% throughout. In addition, the inhibition at 20 ppm in the data set with Pythium ultimum, in the data set on Fusarium culmorum and in the data set on Sclerotinia sclerotiorum was at least 80% throughout.
`C=C(C)CO/N=C(/C)c1cncc2nc(-n3ncnc3N)n(CC)c12` [Compound 178]: the pest or weed control at 200 ppm (with Plasmopara viticola; in data set [1]; in the data set with Pyrenophora teres) was at least 80% throughout. The inhibition at 20 ppm (in data set [3]; in data set [8]; in [5]; in the data set with Gaeumannomyces graminis; in [6]; in data set [7]) was at least 80% throughout. Besides, the inhibition at 20 ppm in the data set with Fusarium culmorum and in the data set on Sclerotinia sclerotiorum was at least 80% in each case.
For the molecule `CCCn1c(-n2ncnc2N)nc2cncc(/C(C)=N\OC/C=C\Cl)c21` [Compound 180], the pest or weed control at 200 ppm (in the data set with Plasmopara viticola; in data set [1]; in the data set with Pyrenophora teres) was at least 80% each time. For the same molecule, the inhibition at 20 ppm (in [3]; in [8]; in data set [5]; in the data set with Gaeumannomyces graminis; in [6]; in [7]) was at least 80% throughout. Also, the inhibition at 20 ppm in the data set with Pythium ultimum, in the data set on Fusarium culmorum and with Sclerotinia sclerotiorum was at least 80% each time.
On to `CCCn1c(-n2ncnc2N)nc2cncc(/C(C)=N\OC/C=C/Cl)c21` [Compound 182], for which the pest or weed control at 200 ppm (in the data set on Plasmopara viticola; in [1]; in data set [2]; in the data set on Pyrenophora teres) was at least 80% in each case. Also, the inhibition at 20 ppm (in [3]; in data set [8]; in data set [5]; in data set [6]; in [7]; with Fusarium culmorum) was at least 80% in each case. For the same molecule, the inhibition at 20 ppm in the data set on Sclerotinia sclerotiorum was at least 80%.
Regarding `CCCn1c(-n2ncnc2N)nc2cncc(/C(C)=N\OC/C=C(\C)Cl)c21` [Compound 184], the pest or weed control at 200 ppm (in the data set with Plasmopara viticola; in [1]; in [2]; in the data set with Pyrenophora teres) was at least 80% in each case. The inhibition at 20 ppm (in data set [3]; in [8]; in data set [5]; in the data set with Gaeumannomyces graminis; in [6]; in [7]) was at least 80% each time. Further, the inhibition at 20 ppm in the data set with Fusarium culmorum and in the data set on Sclerotinia sclerotiorum was at least 80% throughout.
